{"source": "patent US6541482B2", "about": "“Carbocyclic nucleoside agents useful as selective inhibitors of proinflammatory cytokines” (priority 1993, dated 2003)", "key": {"lethal effects of LPS": {"test_system": "lethal effects of LPS", "assay": "D-galactosamine animal model of septic shock (protection against lethal effects of LPS)", "type": "in vivo", "conditions": "treated about 1 hour before i.p. challenge of D-galactosamine and LPS, 100 mg/kg i.p. for the azido compound; for protection: mice, vehicle HBSS 0% protection; for mice killed: vehicle HBSS 6 out of 6 killed by 18 hours", "protocol": "Mice treated with the vehicle Hanks Balanced Salt Solution (HBSS) approximately 1 hour before intraperitoneal (i.p.) challenge of D-galactosamine and LPS, succumb to disease by 18 hours after challenge (e.g. 6 out of 6 mice killed; 0% protection). […] Positive-control PTX afforded […] protection in this model (3 out of 6 mice killed; 50% protection)."}, "TNF-α": {"test_system": "TNF-α", "assay": "Inhibition of TNF-α production by LPS-stimulated human monocyte-derived macrophages", "type": "cell-based", "conditions": "Macrophage; monocyte-derived macrophages from human peripheral blood, stimulated with LPS, 18 hours of culture; dose response 500 μM-0.1 μM; read-out: IC50 for inhibiting TNF-α levels", "protocol": "Monocyte-derived macrophages stimulated with bacterial lipopolysaccharide (LPS) produce high levels of TNF-α (14.87±1.02 ηg/mL) during 18 hours of culture."}}}
{"smiles": "[N-]=[N+]=NC1CCC(n2cnc3c(N)ncnc32)C1", "note": "(stereo not drawn) [1R,3R-trans-1-(9-adenyl)-3-azidocyclopentane]", "values": [{"measurement": "protection", "setting": "lethal effects of LPS", "result": 66, "unit": "%"}, {"measurement": "mice killed", "setting": "lethal effects of LPS", "result": "2 out of 6"}, {"measurement": "IC50", "setting": "TNF-α", "result": "5.48 ± 1.3", "unit": "µM"}]}
{"smiles": "CC(=O)CCCCn1c(=O)c2c(ncn2C)n(C)c1=O", "note": "[Pentoxifylline]", "values": [{"measurement": "protection", "setting": "lethal effects of LPS", "result": 50, "unit": "%"}, {"measurement": "mice killed", "setting": "lethal effects of LPS", "result": "3 out of 6"}, {"measurement": "IC50", "setting": "TNF-α", "result": "26.3 ± 16", "unit": "µM"}]}
